Data from patent US20080305559A1, “Non-Competitive Immunoassays to Detect Small Molecules” (priority 2005, published 2008).
Values joined by “and” are separate entries in the source; they are usually repeats but may differ in a detail not shown here. Identical values can stand only once. No end group written: not given here.

Experiments:
[1] = tested on: anti-PBA polyclonal antibodies; experiment: Cross-reactivity of the noncompetitive phage ELISA for PBA; format: binding, rabbit; conditions: for CR (%): % cross-reactivity=100×[SC50(PBA)/SC50(cross-reacting compound)]; for IC50: noncompetitive phage ELISA for PBA
Procedure: The specificity of the noncompetitive assay set up with the phage borne peptide was characterized by determining its cross-reactivity with structurally related pesticides. PBA concentrations in the 0-50 ng/ml range were used in the noncompetitive ELISAs. Data were normalized, and the molar compound concentration corresponding to the midpoint of the curve, (which corresponds to the concentration of analyte producing 50% saturation of the signal (SC50), was used to express the cross-reactivity of the assay according to the equation:
% cross−reactivity=100×[SC50(PBA)/SC50(cross−reacting compound)]

[2] = tested on: atrazine-MoAb K4E7 immunocomplex; experiment: Noncompetitive phage assay (PHAIA) for atrazine; format: binding; conditions: atrazine as analyte; MoAb K4E7 immobilized; phage borne peptides as tracers
Procedure: In this case, we used the MoAb K4E7 specific for atrazine. The conventional chemical hapten assay developed with this MoAb (see, e.g., Giersch, J Ag. Food Chem. 41: 1006-1011 (1993)) allows one to reach an IC50 of 0.5 ng/ml. We used the atrazine-MoAb K4E7 immunocomplex to select phage borne peptides that could be used to develop a noncompetitive assay. The protocols used for panning and assay set up were identical to those used for the molinate-MoAb 14D7 system described in Example 1 above. […] A short consensus sequence was identified: WFD. The consensus sequence can occur at position two or five of the random sequence. […]
Fifty μl per well of serial dilutions of molinate standard in PBST were dispensed into microtiter plates coated with MoAb 14D7, followed by the addition of 50 μl/well of the adequate dilution of the stabilized phage suspension. […] Absorbance values were fitted to a four-parameter logistic equation using the Genesis Lite 3.03 (Life Sciences (UK) Ltd.) package software. The lower detection limit (DL) of the assays was estimated as the analyte concentration corresponding to the absorbance equal to that of the zero standard plus three times its standard deviation).

MoAb K4E7 [3] = conditions: atrazine; Cardozo et al. 2005; cited from earlier work
MoAb K4E7 [4] = conditions: atrazine, Giersch 1993; cited from earlier work
MoAb 14D7 [5] = conditions: molinate; Cardozo et al. 2005; cited from earlier work
MoAb 14D7 [6] = conditions: molinate, Rufo et al. 2004; cited from earlier work
[7] = tested on: molinate-MoAb 14D7 immunocomplex; experiment: Noncompetitive phage ELISA (PHAIA) for molinate; format: binding; conditions: molinate as analyte, plates coated with MoAb 14D7, named phage borne peptide as tracer
Text: In a similar way that the IC50 (the analyte concentration producing 50% inhibition) is used to denote the sensitivity of competitive methods, we refer to the concentration of analyte producing 50% saturation (SC50) in noncompetitive assays as a practical parameter to compare the sensitivity of our assays. […] For each of these clones, the assay conditions were optimized as described previously. […] These differences highlight the importance of the residues that flank the WDT consensus sequence of the selected peptides. This can be seen in the case of the S1 and S4 peptide sequences, which only differ in two amino acids and yield assays with SC50 of 5 and 32 ng/ml, respectively.
(§1) Nunc-Immuno™ Maxi-Sorp™ plates were coated with MoAb 14D7 or molinate-MoAb 14D7 immunocomplex as described previously. The wells were blocked with 5% skimmed milk PBS, and washed three times with PBST. One hundred μl/well of an overnight culture of individual amplified phage clones were dispensed into the wells. The microtiter plates where then incubated for 1 h at room temperature with gentle rocking. After washing three times with PBST, 100 μL of a 1/5000 dilution of horse radish peroxidase (HRP) labeled anti-M13 monoclonal antibody (Pharmacia, Uppsala) in PBST were added to each well. One hour later, the plates were thoroughly washed and 100 μl of peroxidase substrate (25 ml of 0.1 M citrate acetate buffer pH 5.5, 0.4 ml of 6 mg/ml DMSO solution of 3,3′,5,5′-tetramethylbenzidine, and 0.1 ml of 1% H2O2) were dispensed into each well. The enzymatic reaction was stopped after 15-20 min by the addition of 50 μl of 2 M H2SO4, and the absorbance at 450 nm (corrected at 600 nm) was read in a microtiter plate reader (Multiskan MS, Labsystems). The supernatants showing high readings in wells coated with the immunocomplex and low response in antibody coated wells were prepared as stabilized phage suspensions (see below), and use for further analysis. For checkerboard titration, 100 μl of variable concentrations of the antibody (0.3-2 μg/ml) were used for coating.
Fifty μl per well of serial dilutions of molinate standard in PBST were dispensed into microtiter plates coated with MoAb 14D7, followed by the addition of 50 μl/well of the adequate dilution of the stabilized phage suspension. The antibody concentration used for coating and the proper dilution of the phage suspension had been previously optimized by checkerboard experiments. After an hour incubation period at room temperature, the plates were washed and developed as previously described. Absorbance values were fitted to a four-parameter logistic equation using the Genesis Lite 3.03 (Life Sciences (UK) Ltd.) package software. The lower detection limit (DL) of the assays was estimated as the analyte concentration corresponding to the absorbance equal to that of the zero standard plus three times its standard deviation).

MoAb 14D7 [8] = experiment: Phage ELISA checkerboard titration: reactivity with the IC and the uncombined antibody; format: binding; conditions: wide range of MoAb 14D7 coating densities, absence of molinate
Procedure: as §1

Molecule | CR (%) [1] [%] | IC50 [1] [µg/mL] | SC50 (concentration of analyte producing 50% saturation) [7] | also measured
O=C(O)c1ccc(O)cc1 [4-Hydroxybenzoic acid] | 0 | >0.1 |  | 
CC1(C)C(C=C(Cl)Cl)C1C(=O)OC(C#N)c1cccc(Oc2ccccc2)c1 (stereo not drawn) [Cypermethrin] | 0 | >0.1 |  | 
CC(C)C(C(=O)OC(C#N)c1cccc(Oc2ccccc2)c1)c1ccc(Cl)cc1 (stereo not drawn) [Esfenvalerate] | 0 | >0.1 |  | 
O=C(O)CNC(=O)c1cccc(Oc2ccccc2)c1 [PBA-glycine conjugate] | 0 | >0.1 |  | 
CC1(C)C(C=C(Cl)Cl)C1C(=O)OCc1cccc(Oc2ccccc2)c1 (stereo not drawn) [Permethrin] | 0 | >0.1 |  | 
CCNc1nc(Cl)nc(NC(C)C)n1 [atrazine] |  |  |  | SC50 [2]: 0.2 to 0.8 ng/mL; IC50 of competitive assay set up with the same antibody (MoAb K4E7 [3]): 0.00064 ± 6e-05 µg/mL; IC50 of conventional chemical hapten assay (MoAb K4E7 [4]): 0.0005 µg/mL
CCSC(=O)N1CCCCCC1 [molinate] |  |  |  | IC50 of phage competitive assay (MoAb 14D7 [5]): 0.045 µg/mL; IC50 of competitive assay set up with heterologous chemical haptens (MoAb 14D7 [6]): 69 ng/ml and 69.2±1.4 ng/ml
C N I W D T S G W C (CNIWDTSGWC; phage-displayed) [mH, phage clone from the mutagenesis library] |  |  | 27 ± 2.0 ng/mL | 
C N L W D T T G W C (CNLWDTTGWC; phage-displayed) [mF, phage clone from the mutagenesis library] |  |  | 11 ± 0.5 ng/mL | 
C N R W D T T G W C (CNRWDTTGWC; not fully specified (bridges); cysteine pairing not given here; also: phage-displayed on pVIII) [8M2] |  |  | 6.1 ± 0.3 ng/mL and 6.0 ± 0.3 ng/mL | 
C S I W D T T G W C (CSIWDTTGWC; phage-displayed) [mI12, phage clone from the mutagenesis library] |  |  | 8.1 ± 0.6 ng/mL | 
C S L W D T T G W C (CSLWDTTGWC; phage-displayed) [mA, phage clone from the mutagenesis library] |  |  | 8.5 ± 0.5 ng/mL | residual reactivity with the free (uncombined) antibody (MoAb 14D7 [8]): little reactivity with the free antibody
C S T W D T T G W C (CSTWDTTGWC; also: phage-displayed on pVIII, cyclic, bridge not given here) [1M] |  |  | 5.0 ± 0.4 ng/mL | SC50 (concentration of analyte producing 50% saturation) ([7]; listed as S1): 5 ng/mL
C S V W D T S G W C (CSVWDTSGWC; not fully specified (bridges); cysteine pairing not given here; also: phage-displayed) [10M2] |  |  | 32 ± 5 ng/mL and 32 ± 4.9 ng/mL | SC50 (concentration of analyte producing 50% saturation) ([7]; listed as S4): 32 ng/mL
C S Y W D T T G W C (CSYWDTTGWC; phage-displayed) [mG, phage clone from the mutagenesis library] |  |  | 16 ± 0.7 ng/mL | 
CTPVRWFDMC (phage-displayed) [13A] |  |  |  | SC50 [2]: 0.0511 ± 0.002 ng/mL
